Data from ChEMBL document CHEMBL5614387, “Discovery of 2,4,6-trisubstituted pyrimidine derivatives as novel potent HIV-1 NNRTIs by exploiting the tolerant region II of the NNIBP” (Eur J Med Chem, 2024).
pEC50, pIC50: −log10 of the molar value.

Legend:
[1] = Selectivity index, ratio of CC50 for human MT4 cells to EC50 for wild-type HIV-1 IIIB infected in human MT4 cells; assay type: toxicity, cell-based; conditions: read-out: Ratio CC50/EC50
[2] = system: Human immunodeficiency virus 1; experiment: Antiviral activity against HIV-1 harboring RT K103N mutant infected in human MT4 cells assessed as protection against virus-induced cytopathic effect by MTT assay; assay type: functional, organism-based; conditions: Human immunodeficiency virus 1, MT4
[3] = system: Human immunodeficiency virus 1; experiment: Antiviral activity against wild-type HIV-1 IIIB infected in human MT4 cells assessed as protection against virus-induced cytopathic effect by MTT assay; assay type: functional, organism-based; conditions: Human immunodeficiency virus 1, IIIB
[4] = system: Human immunodeficiency virus 1; experiment: Antiviral activity against HIV-1 harboring RT Y188L mutant infected in human MT4 cells assessed as protection against virus-induced cytopathic effect by MTT assay; assay type: functional, organism-based; conditions: Human immunodeficiency virus 1, MT4
[5] = system: Human immunodeficiency virus 1; experiment: Antiviral activity against HIV-1 harboring RT RES056 mutant infected in human MT4 cells assessed as protection against virus-induced cytopathic effect by MTT assay; assay type: functional, organism-based; conditions: Human immunodeficiency virus 1, MT4
[6] = molecular target: Human immunodeficiency virus type 1 reverse transcriptase (Human immunodeficiency virus 1, UniProt Q72547); experiment: Inhibition of wild-type HIV-1 reverse transcriptase incubated for 1 hr in presence of biotin-dUTP by ELISA
[7] = system: Human immunodeficiency virus 1; experiment: Antiviral activity against HIV-1 harboring RT F227L/V106A mutant infected in human MT4 cells assessed as protection against virus-induced cytopathic effect by MTT assay; assay type: functional, organism-based; conditions: Human immunodeficiency virus 1, MT4
[8] = system: Human immunodeficiency virus 1; experiment: Antiviral activity against HIV-1 harboring RT E138K mutant infected in human MT4 cells assessed as protection against virus-induced cytopathic effect by MTT assay; assay type: functional, organism-based; conditions: Human immunodeficiency virus 1, MT4
[9] = Cytotoxicity against human MT4 cells assessed as reduction in cell viability by MTT assay; assay type: toxicity, cell-based
[10] = system: Human immunodeficiency virus 1; experiment: Antiviral activity against HIV-1 harboring RT L100I mutant infected in human MT4 cells assessed as protection against virus-induced cytopathic effect by MTT assay; assay type: functional, organism-based; conditions: Human immunodeficiency virus 1, MT4
[11] = system: Human immunodeficiency virus 1; experiment: Antiviral activity against HIV-1 harboring RT Y181C mutant infected in human MT4 cells assessed as protection against virus-induced cytopathic effect by MTT assay; assay type: functional, organism-based; conditions: Human immunodeficiency virus 1, MT4

SMILES	selectivity ratio [1]	pEC50 [2]	pEC50 [3]	pEC50 [4]	pEC50 [5]	pIC50 [6]	pEC50 [7]	pEC50 [8]	CC50 [9]	pEC50 [10]	pEC50 [11]
Cc1cc(C#N)cc(C)c1Oc1cc(-c2ccncc2)nc(NC2CCN(Cc3ccc(S(N)(=O)=O)cc3)CC2)n1	5080	7.97	8.44	7.23	5.92	6.29	7.14	7.83	18400 nM	7.00	7.36
Cc1cc(C#N)cc(C)c1Oc1cc(-c2cncnc2)nc(NC2CCN(Cc3ccc(S(N)(=O)=O)cc3)CC2)n1	25400	7.89	8.37	7.26	6.04	6.13	7.20	7.46	109000 nM	7.40	7.59
Cc1cc(C#N)cc(C)c1Oc1cc(-c2ccccc2)nc(NC2CCN(Cc3ccc(S(N)(=O)=O)cc3)CC2)n1	3000	–	8.22	–	–	–	–	–	18000 nM	–	–
Cc1cc(C#N)cc(C)c1Oc1cc(-c2ccsc2)nc(NC2CCN(Cc3ccc(S(C)(=O)=O)cc3)CC2)n1	> 1310	–	6.78	–	–	–	–	–	> 219000 nM	–	–
Cc1cc(C#N)cc(C)c1Oc1cc(-c2cncnc2)nc(NC2CCN(Cc3ccc(S(C)(=O)=O)cc3)CC2)n1	16100	–	8.17	–	–	–	–	–	108000 nM	–	–
Cc1cc(C#N)cc(C)c1Oc1cc(-c2ccco2)nc(NC2CCN(Cc3ccc(S(C)(=O)=O)cc3)CC2)n1	3640	–	8.25	–	–	–	–	–	20700 nM	–	–
Cc1cc(C#N)cc(C)c1Oc1cc(-c2ccccc2)nc(NC2CCN(Cc3ccc(C(N)=O)cc3)CC2)n1	3710	–	8.21	–	–	–	–	–	23100 nM	–	–
Cc1cc(C#N)cc(C)c1Oc1cc(-c2ccccc2)nc(NC2CCN(Cc3ccc(S(C)(=O)=O)cc3)CC2)n1	2670	8.17	8.33	7.42	6.64	6.64	7.59	7.49	12500 nM	7.94	7.56
Cc1cc(C#N)cc(C)c1Oc1cc(-c2ccoc2)nc(NC2CCN(Cc3ccc(C(N)=O)cc3)CC2)n1	3610	–	8.26	–	–	–	–	–	19800 nM	–	–
Cc1cc(C#N)cc(C)c1Oc1cc(-c2ccncc2)nc(NC2CCN(Cc3ccc(S(C)(=O)=O)cc3)CC2)n1	6460	8.00	8.39	7.21	5.63	6.28	6.97	7.75	26300 nM	7.23	7.29
Cc1cc(C#N)cc(C)c1Oc1cc(-c2cccnc2)nc(NC2CCN(Cc3ccc(S(N)(=O)=O)cc3)CC2)n1	4500	7.88	8.39	7.44	6.31	6.34	6.98	7.68	18200 nM	7.51	7.59
Cc1cc(C#N)cc(C)c1Oc1cc(-c2cccnc2)nc(NC2CCN(Cc3ccc(C(N)=O)cc3)CC2)n1	4760	7.95	8.44	7.42	5.85	6.37	6.97	8.02	17200 nM	7.45	7.82
Cc1cc(C#N)cc(C)c1Oc1cc(-c2ccco2)nc(NC2CCN(Cc3ccc(S(N)(=O)=O)cc3)CC2)n1	2900	–	8.11	–	–	–	–	–	22800 nM	–	–
Cc1cc(C#N)cc(C)c1Oc1cc(-c2cccnc2)nc(NC2CCN(Cc3ccc(S(C)(=O)=O)cc3)CC2)n1	5000	8.05	8.39	7.44	6.10	6.22	6.83	7.58	20600 nM	7.23	7.66
Cc1cc(C#N)cc(C)c1Oc1cc(-c2cccs2)nc(NC2CCN(Cc3ccc(C(N)=O)cc3)CC2)n1	4310	8.18	8.35	7.35	6.40	6.52	7.20	7.44	19300 nM	7.69	7.52
Cc1cc(C#N)cc(C)c1Oc1cc(-c2ccco2)nc(NC2CCN(Cc3ccc(C(N)=O)cc3)CC2)n1	1550	–	7.81	–	–	–	–	–	24000 nM	–	–
Cc1cc(C#N)cc(C)c1Oc1cc(-c2ccoc2)nc(NC2CCN(Cc3ccc(S(N)(=O)=O)cc3)CC2)n1	3150	–	8.03	–	–	–	–	–	29500 nM	–	–
Cc1cc(C#N)cc(C)c1Oc1cc(-c2ccsc2)nc(NC2CCN(Cc3ccc(C(N)=O)cc3)CC2)n1	4680	–	8.30	–	–	–	–	–	23700 nM	–	–
Cc1cc(C#N)cc(C)c1Oc1cc(-c2cccs2)nc(NC2CCN(Cc3ccc(S(N)(=O)=O)cc3)CC2)n1	2320	–	7.97	–	–	–	–	–	24600 nM	–	–
Cc1cc(C#N)cc(C)c1Oc1cc(-c2ccoc2)nc(NC2CCN(Cc3ccc(S(C)(=O)=O)cc3)CC2)n1	4060	–	8.25	–	–	–	–	–	22600 nM	–	–
Cc1cc(C#N)cc(C)c1Oc1cc(-c2cncnc2)nc(NC2CCN(Cc3ccc(C(N)=O)cc3)CC2)n1	10100	7.99	8.39	7.45	5.97	6.22	6.55	7.54	41600 nM	7.11	7.61
Cc1cc(C#N)cc(C)c1Oc1cc(-c2ccncc2)nc(NC2CCN(Cc3ccc(C(N)=O)cc3)CC2)n1	2870	–	8.13	–	–	–	–	–	21200 nM	–	–
Cc1cc(C#N)cc(C)c1Oc1cc(-c2cccs2)nc(NC2CCN(Cc3ccc(S(C)(=O)=O)cc3)CC2)n1	3000	–	8.26	–	–	–	–	–	16600 nM	–	–
Cc1cc(C#N)cc(C)c1Oc1cc(-c2ccsc2)nc(NC2CCN(Cc3ccc(S(N)(=O)=O)cc3)CC2)n1	3330	8.34	8.35	7.33	6.51	6.63	7.21	7.37	14800 nM	8.01	7.43
O=C1Nc2ccc(Cl)cc2[C@@](C#CC2CC2)(C(F)(F)F)O1 [EFAVIRENZ]	–	–	8.44	6.40	–	–	6.58	8.05	> 6340 nM	7.54	–
Cc1cc(C#N)cc(C)c1Oc1nc(Nc2ccc(C#N)cc2)nc(N)c1Br [ETRAVIRINE]	–	–	–	7.52	7.49	–	–	7.83	> 4590 nM	–	–
Cc1ccnc2c1NC(=O)c1cccnc1N2C1CC1 [NEVIRAPINE]	> 73	5.08	–	< 4.82	< 4.82	–	< 4.82	6.44	> 15000 nM	5.50	5.04
